Data published in BindingDB's records for doi:10.1016/s0960-894x(98)00284-4 (Glaxowellcome, 1998).

Biological target: Glutamate receptor ionotropic, NMDA 1 (Rattus norvegicus, UniProt P35439)
Assay: ChEBML_140329
Experimental: In vitro affinity of compound for the glycinergic site associated with NMDA receptor was assessed by inhibition of the binding of [3H]glycine

| SMILES | Ki [nM] |
| --- | --- |
| O=C(O)c1[nH]c2cc(Cl)cc(Cl)c2c1/C=C1\CCN(c2ccccc2)C1=O | 7.5 |
| O=C(O)c1[nH]c2cc(Cl)cc(Cl)c2c1/C=C1\CCCN(c2ccccc2)C1=O | 7.3 |
